# Reference: ChEMBL document CHEMBL1944527, “Structure-based library design and the discovery of a potent and selective mast cell β-tryptase inhibitor as an oral therapeutic agent” (Bioorg Med Chem Lett, 2012)
# Assays:
# [1] = Inhibition of human recombinant beta tryptase using S-2366 as substrate after 30 mins by spectrophotometry
# Coagulation factor X = Coagulation factor X (Homo sapiens, UniProt P00742); assay: Inhibition of Coagulation factor 10a
# [2] = Oral bioavailability in rat at 10 mg/kg; assay type: ADME, organism-based; details: in vivo
# [3] = Inhibition of trypsin
# [4] = Plasma clearance in rat at 2 mg/kg, iv and 10 mg/kg, po
# Chymase = target: T1, Chymase (Homo sapiens, UniProt P23946); assay: Inhibition of chymase
# T1 sequence (P23946 whole entry): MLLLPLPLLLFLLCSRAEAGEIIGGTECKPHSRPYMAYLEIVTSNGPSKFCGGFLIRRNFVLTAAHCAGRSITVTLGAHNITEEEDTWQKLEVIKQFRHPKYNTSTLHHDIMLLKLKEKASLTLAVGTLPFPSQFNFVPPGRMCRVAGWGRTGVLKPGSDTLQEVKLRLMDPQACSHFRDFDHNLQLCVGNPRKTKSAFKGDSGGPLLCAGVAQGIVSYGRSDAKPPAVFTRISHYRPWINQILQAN
# [5] = Cmax in rat at 10 mg/kg, po; assay type: ADME, organism-based; parameters: dose 10 mg/kg, route oral; details: in vivo
# [6] = Half life in rat plasma at 2 mg/kg, iv
# Prothrombin = Prothrombin (Homo sapiens, UniProt P00734); assay: Inhibition of thrombin
# [7] = Inhibition of elastase
# [8] = Volume of distribution at steady state in rat at 2 mg/kg, iv and 10 mg/kg, po; details: in vivo, read-out: Vdss
# [9] = Tmax in rat at 10 mg/kg, po; assay type: ADME, organism-based; parameters: dose 10 mg/kg, route oral; details: in vivo
# Chain of Coagulation factor X (P00742 41-179 limits assumed): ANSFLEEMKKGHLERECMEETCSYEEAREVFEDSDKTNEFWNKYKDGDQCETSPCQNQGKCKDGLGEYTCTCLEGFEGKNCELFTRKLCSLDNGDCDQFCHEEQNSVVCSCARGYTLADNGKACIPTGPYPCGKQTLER
# Chain of Coagulation factor X (P00742 235-488 limits assumed): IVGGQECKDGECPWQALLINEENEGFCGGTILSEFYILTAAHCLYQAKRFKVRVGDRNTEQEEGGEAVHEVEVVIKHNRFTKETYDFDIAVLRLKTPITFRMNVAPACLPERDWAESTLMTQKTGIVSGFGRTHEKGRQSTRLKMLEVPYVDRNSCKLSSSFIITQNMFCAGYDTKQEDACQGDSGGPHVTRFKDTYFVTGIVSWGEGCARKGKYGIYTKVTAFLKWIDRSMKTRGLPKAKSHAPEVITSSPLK
smiles,measurement,setting,value
NCc1cccc(C2CCN(C(=O)c3ccc(C#Cc4ccc(Cl)cc4)o3)CC2)c1,Ki,[1],166 nM
NCc1cccc(C2CCN(C(=O)c3ccc(C#Cc4ccccc4)o3)CC2)c1.O=C(O)C(F)(F)F,IC50,Coagulation factor X,> 100 µM
same,bioavailability,[2],32%
same,IC50,[3],> 100 µM
same,clearance,[4],85 mL/min/kg
same,IC50,Chymase,> 100 µM
same,Ki,[1],31 nM
same,Cmax,[5],68 ng/mL
same,half-life,[6],150 min
same,IC50,Prothrombin,> 100 µM
same,IC50,[7],> 100 µM
same,Vd,[8],14.1 L/kg
same,Tmax,[9],3.3 h
NCc1cccc(C2CCN(C(=O)c3ccc(C#Cc4ccccc4F)o3)CC2)c1.O=C(O)C(F)(F)F,IC50,Coagulation factor X,> 100 µM
same,bioavailability,[2],77%
same,IC50,[3],> 100 µM
same,clearance,[4],140 mL/min/kg
same,IC50,Chymase,> 100 µM
same,Cmax,[5],121 ng/mL
same,half-life,[6],132 min
same,IC50,Prothrombin,> 100 µM
same,IC50,[7],> 100 µM
same,Vd,[8],18.5 L/kg
same,Tmax,[9],3.7 h
Cc1ccc(C#Cc2ccc(C(=O)N3CCC(c4cccc(CN)c4)CC3)o2)cc1,Ki,[1],112 nM
Cc1ccccc1C#Cc1ccc(C(=O)N2CCC(c3cccc(CN)c3)CC2)o1,Ki,[1],324 nM
NCc1cccc(C2CCN(C(=O)c3ccc(C#Cc4ccc(F)c(F)c4)o3)CC2)c1,Ki,[1],742 nM
NCc1cccc(C2CCN(C(=O)c3ccc(C#Cc4ccc(F)cc4F)o3)CC2)c1,Ki,[1],67 nM
NCc1cccc(C2CCN(C(=O)c3ccc(C#Cc4ccc(F)cc4)o3)CC2)c1,Ki,[1],279 nM
NCc1cccc(C2CCN(C(=O)c3ccc(C#Cc4cccc(F)c4)o3)CC2)c1,Ki,[1],98 nM
NCc1cccc(C2CCN(C(=O)c3ccc(C#Cc4ccccc4Cl)o3)CC2)c1,Ki,[1],22 nM
NCc1cccc(C2CCN(C(=O)c3ccc(C#Cc4ccc(Cl)nc4)o3)CC2)c1,Ki,[1],101 nM
NCc1cccc(C2CCN(C(=O)c3ccc(C#Cc4cccs4)o3)CC2)c1,Ki,[1],236 nM
NCc1cccc(C2CCN(C(=O)c3ccc(C#Cc4ccsc4)o3)CC2)c1,Ki,[1],327 nM
NCc1cccc(C2CCN(C(=O)c3ccc(C#Cc4cccnc4)o3)CC2)c1,Ki,[1],84 nM
NCc1cccc(C2CCN(C(=O)c3ccc(C#Cc4ccccn4)o3)CC2)c1.O=C(O)C(F)(F)F,IC50,Coagulation factor X,9 µM
same,bioavailability,[2],0%
same,IC50,[3],> 100 µM
same,clearance,[4],310 mL/min/kg
same,IC50,Chymase,> 100 µM
same,Ki,[1],5 nM
same,half-life,[6],27.6 min
same,IC50,Prothrombin,> 100 µM
same,IC50,[7],> 100 µM
NCc1cccc(C2CCN(C(=O)c3ccc(C#Cc4ncccc4F)o3)CC2)c1,Ki,[1],27 nM
NCc1cccc(C2CCN(C(=O)c3ccc(C#Cc4cnccn4)o3)CC2)c1,Ki,[1],2770 nM
NCc1cccc(C2CCN(C(=O)c3ccc(C#Cc4ncccn4)o3)CC2)c1,Ki,[1],157 nM
